Assay results published in US8617563B2, “Antichlamydial agents” (Duke University, priority 2011, dated 2013).
Entries after “also recorded” stand apart in the source; their conditions may differ. Where no end group is shown, it is not given here.

What was measured:
[1] = test system: Chlamydia-infected HeLa cells; assay: Apoptosis markers (AnnexinV staining, Caspase-3 cleavage) in infected HeLa cells; format: cell-based, C. trachomatis; details: peptide 12.5 μM at 12 hpi
Protocol: FIG. 11 depicts (A) that inhibiting CPAF activity induces host cell death. The indicated peptides (anti-CPAF peptide refers to SEQ ID NO:7) were added to infected cells 12 hpi and the percentage of infected cells with condensed nuclei was quantified at the indicated times. (B-C) Inhibition of CPAF activity induces apoptosis. Infected cells were treated with peptides and the percentage of AnnexinV-FITC positive (propidium iodide (PI) negative) was determined by flow cytometry (B). In parallel samples, cleavage of Caspase-3, a hallmark of apoptosome activation, was monitored by immunoblot analysis. Actin and MOMP are host and bacterial loading controls respectively. […] Infected cells were treated as in (A) in the presence or absence of ZVAD-FMK, labeled with PI and analyzed by flow cytometry. […]
Subsequent experiments tested whether CPAF inhibition led to the onset of apoptosis in infected cells. […] Apoptotic cells were identified with an AnnexinV-FLOUS Staining Kit (available from Roche) and activation of Caspase-1 was determined by labeling active Caspase-1 with a Carboxyfluorescein FLICA Detection Kit (available from Immunochemistry) and analyzed in a FACScanner (available from BD Biosciences). […] Consistent with result, Caspase-3 cleavage, another characteristic of apoptotic cell death, was not detected (FIG. 11C).

CPAF = CPAF (Chlamydia trachomatis serovar D, UniProt O84866); format: cell-based, C. trachomatis; set-up: endogenous in cells; host or cells: HeLa cells infected with C. trachomatis LGV-L2 434/Bu (the bacteria make the protein and secrete it into the host cytosol); details: L2-infected HeLa cells, peptide at 12 hpi, harvested 30 hpi; 2-10 μM for vimentin
Protocol: Uninfected and HeLa cells pre-infected with L2 for 30 hrs were treated with inhibitory peptides and infected with EBs for 10 min Tarp translocation was indirectly visualized with an anti-phosphotyrosine antibody (A) and quantified by counting 50 separate cells (B). The stability of newly translocated Tarp was assessed by infecting cells as in (A) but with S^35-labeled EBs, followed by sequential immunoprecipitation of Tarp and MOMP and Phosphoimager analysis of precipitated material (C (I-IV)). […] IC50 values were determined by assessing CPAF cleavage of an Abz-tagged CPAF substrate (SEQ ID NO:9) by HPLC. Assays were performed the presence of increasing amount of inhibitors. […] Extracellular bacteria were determined. […] The number of internalized EBs was quantified per cell (H). […]
Rabbits were immunized with recombinant GST fusions to Ct005, IncC, IncD, Tarp, and hexa-histidine-tagged CPAF produced in E. coli BL-21 (available from Stratagene) and purified by affinity chromatography. […] To assess CPAF cleavage of membrane proteins and EB proteins, purified membranes and soluble EB protein lysate were incubated with 6× his-CPAF at 37° C., and resulting product analyzed by immunoblot. […]
To establish if CPAF was inhibited by SEQ ID NO:7 during infection, vimentin cleavage was assessed in C. trachomatis LGV-L2 434-infected HeLa cells after treatment with a range of concentrations (2-10 μM).

Chain of CPAF (O84866 276-601): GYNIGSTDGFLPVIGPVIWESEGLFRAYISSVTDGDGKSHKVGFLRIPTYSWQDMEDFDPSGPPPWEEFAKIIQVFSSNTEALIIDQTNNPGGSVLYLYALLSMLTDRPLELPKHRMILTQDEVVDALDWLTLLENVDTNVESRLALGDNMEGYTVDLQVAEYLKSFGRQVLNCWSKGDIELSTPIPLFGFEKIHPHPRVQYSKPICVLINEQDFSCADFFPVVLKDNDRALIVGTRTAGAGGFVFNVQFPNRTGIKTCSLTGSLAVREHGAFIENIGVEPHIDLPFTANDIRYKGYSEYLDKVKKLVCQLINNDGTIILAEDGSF
Chain of CPAF (O84866 24-234): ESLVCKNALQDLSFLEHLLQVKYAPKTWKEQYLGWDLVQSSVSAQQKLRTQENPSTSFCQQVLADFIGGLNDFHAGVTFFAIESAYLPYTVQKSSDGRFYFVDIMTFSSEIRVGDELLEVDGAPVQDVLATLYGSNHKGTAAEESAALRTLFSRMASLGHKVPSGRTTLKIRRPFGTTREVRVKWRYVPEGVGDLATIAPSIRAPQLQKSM

SLFYSPMVPHFWAELRNHYATSGLKRRRRRRRRR-NH2 [SEQ ID NO:7]
AnnexinV staining of infected cells [1]: did not stain for AnnexinV | Caspase-3 cleavage in infected cells ([1]; immunoblot): not detected | Inhibition of CPAF-mediated cleavage of vimentin and Puma in infected cells (CPAF): markedly inhibited; also recorded: loss of vimentin processing; also recorded: Vimentin and Puma cleavage was inhibited
